Experimental data from ChEMBL document CHEMBL5046297, “Discovery of a Colon-Targeted Azo Prodrug of Tofacitinib through the Establishment of Colon-Specific Delivery Systems Constructed by 5-ASA-PABA-MAC and 5-ASA-PABA-Diamine for the Treatment of Ulcerative Colitis” (J Med Chem, 2022).

Tests used:
[1] = Prodrug conversion in Sprague-Dawley rat colon content suspension assessed as tofacitinib release measured upto 8 hrs by HPLC analysis; type: ADME, tissue-based
[2] = Chemical stability in simulated intestinal fluid assessed as parent compound remaining incubated for 12 hrs by LC-MS/MS analysis; type: ADME, physicochemical; conditions: simulated gi fluid
[3] = Chemical stability of compound in pH 7.4 PBS buffer at 100 uM incubated for 24 hrs by HPLC analysis; type: physicochemical; conditions: pH 7.4, 24 h
[4] = Chemical stability in simulated gastric fluid assessed as parent compound remaining incubated for 12 hrs by LC-MS/MS analysis; type: ADME, physicochemical; conditions: simulated gi fluid
[5] = Chemical stability of compound in pH 1.2 HCl buffer at 100 uM incubated for 24 hrs by HPLC analysis; type: physicochemical; conditions: pH 1.2, 24 h
[6] = Chemical stability of compound in pH 4.5 PBS buffer at 100 uM incubated for 24 hrs by HPLC analysis; type: physicochemical; conditions: pH 4.5, 24 h

C[C@@H]1CCN(C(=O)CC#N)C[C@@H]1N(C)c1ncnc2c1ccn2C(=O)N(C)CCN(C)C(=O)OCc1ccc(/N=N/c2ccc(O)c(C(=O)O)c2)c(Cl)c1
Drug metabolism [1]: 2.93 mmol/L/h | Stability [2]: Stable | Stability [3]: Stable | Stability [4]: Stable | Stability [5]: Stable | Stability [6]: Stable

COc1cc(/N=N/c2ccc(O)c(C(=O)O)c2)ccc1COC(=O)N(C)CCN(C)C(=O)n1ccc2c(N(C)[C@H]3CN(C(=O)CC#N)CC[C@H]3C)ncnc21
Drug metabolism [1]: 2.44 mmol/L/h | Stability [2]: Stable | Stability [3]: Stable | Stability [4]: Stable | Stability [5]: Stable | Stability [6]: Stable

C[C@@H]1CCN(C(=O)CC#N)C[C@@H]1N(C)c1ncnc2c1ccn2CNC(=O)OCc1ccc(/N=N/c2ccc(O)c(C(=O)O)c2)cc1
Drug metabolism [1]: 2.87 mmol/L/h | Stability [2]: Stable | Stability [3]: Stable | Stability [4]: Stable | Stability [5]: Stable | Stability [6]: Stable

C[C@@H]1CCN(C(=O)CC#N)C[C@@H]1N(C)c1ncnc2c1ccn2C(=O)N(C)CCN(C)C(=O)OCc1ccc(/N=N/c2ccc(O)c(C(=O)O)c2)cc1
Drug metabolism [1]: 2.114 mmol/L/h | Stability [2]: Stable | Stability [3]: Stable | Stability [4]: Stable | Stability [5]: Stable | Stability [6]: Stable
